Reference: US8362065B2, “Carbazole carboxamide compounds useful as kinase inhibitors” (Bristol-Myers Squibb Company, priority 2008, dated 2013)
Counter-ions that a name gives are not always drawn.

Experiments:
Ramos RA1 B cells = experiment: Ramos FLIPR Assay; type: cell-based; conditions: goat anti-human IgM 2.5 μg/mL, peak intracellular calcium, read-out: IC50 for Inhibition of Ramos FLIPR assay
human recombinant Btk = target: T1, human recombinant Btk (Homo sapiens, UniProt Q06187); experiment: Human Recombinant Btk Enzyme Assay; type: biochemical; conditions: human recombinant Btk 1 nM, ATP 20 μM, 60 min at room temperature; read-out: IC50 for Inhibition of Btk
T1 construct: purchased Invitrogen Corporation

[1] = system: anti-KLH IgG response in BALB/c mice; experiment: KLH Antigen Challenge and Antibody Measurement; type: in vivo, mouse; conditions: female BALB/c mice, serum 14 days post-immunization
Procedure: KLH Antigen Challenge and Antibody Measurement
Female BALB/c mice (6-8 weeks old) were immunized intraperitoneally (IP) with 250 μg keyhole limit hemocyanin (KLH) (Pierce, Rockford, Ill.) in phosphate-buffered saline (PBS). Mice in appropriate groups were dosed as indicated. Blood was collected 14 days post-immunization, serum was separated and analyzed for anti-KLH IgG titers by ELISA. Briefly, 96 well plates were coated with KLH in PBS, blocked, and serial dilutions of test serum samples were added.

T1 sequence (Q06187 whole entry): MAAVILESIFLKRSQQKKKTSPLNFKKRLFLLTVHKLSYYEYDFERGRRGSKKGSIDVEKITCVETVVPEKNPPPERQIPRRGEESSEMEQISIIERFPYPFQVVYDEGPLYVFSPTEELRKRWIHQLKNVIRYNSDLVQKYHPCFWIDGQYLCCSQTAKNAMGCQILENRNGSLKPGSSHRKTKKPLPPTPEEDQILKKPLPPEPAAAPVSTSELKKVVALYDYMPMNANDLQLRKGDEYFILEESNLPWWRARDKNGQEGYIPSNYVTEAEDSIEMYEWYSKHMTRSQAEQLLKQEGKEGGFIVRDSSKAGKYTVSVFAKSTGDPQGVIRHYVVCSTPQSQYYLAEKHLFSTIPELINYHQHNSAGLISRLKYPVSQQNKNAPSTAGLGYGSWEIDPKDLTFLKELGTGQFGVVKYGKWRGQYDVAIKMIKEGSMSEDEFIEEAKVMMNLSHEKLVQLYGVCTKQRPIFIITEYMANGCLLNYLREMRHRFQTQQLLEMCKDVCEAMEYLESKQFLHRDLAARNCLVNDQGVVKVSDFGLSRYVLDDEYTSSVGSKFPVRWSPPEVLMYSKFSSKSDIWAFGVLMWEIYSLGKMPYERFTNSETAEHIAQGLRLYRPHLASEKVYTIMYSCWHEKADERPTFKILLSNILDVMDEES

Row | IC50 (Ramos RA1 B cells) | IC50 (human recombinant Btk) | SMILES | inhibited the anti-KLH IgG response ([1]; 10 mg/kg twice daily) | inhibited the anti-KLH IgG response ([1]; 30 mg/kg twice daily)
1 | 250 nM |  | Cc1c(-c2ccc(C(N)=O)c3[nH]c4cc(N5CCCC5=O)ccc4c23)cccc1N1Cc2ccccc2C1=O [Example 62-1, 4-(2-methyl-3-(1-oxoisoindolin-2-yl)phenyl)-7-(2-oxopyrrolidin-1-yl)-9H-carbazole-1-carboxamide] |  | 
2 | 38 nM | 3.2 nM | COc1ccc2c(c1)CN(c1cccc(-c3ccc(C(N)=O)c4[nH]c5cc(C(C)(C)O)ccc5c34)c1C)C2=O [Example 76-32, 7-(2-hydroxypropan-2-yl)-4-(3-(5-methoxy-1-oxoisoindolin-2-yl)-2-methylphenyl)-9H-carbazole-1-carboxamide] |  | 
3 | 240 nM |  | Cc1c(/N=C2\OCc3ccncc32)cccc1-c1ccc(C(N)=O)c2[nH]c3c(c12)CCC(C(C)(C)O)C3 (centres unmarked) [Example 76-7] |  | 
4 | 1400 nM |  | CN1CCN(C(=O)c2ccc3c(c2)[nH]c2c(C(N)=O)ccc(-c4c(F)cc(NC(=O)c5ccc(F)cc5)cc4F)c23)CC1 [Example 5-48] |  | 
5 | 18 nM |  | Cc1c(-c2ccc(C(N)=O)c3[nH]c4cc(C(C)(C)O)ccc4c23)cccc1-n1cnc2cccc(F)c2c1=O [Example 76-26] |  | 
6 | 270 nM |  | Cc1c(-c2ccc(C(N)=O)c3[nH]c4cc(N5CCOC5=O)ccc4c23)cccc1N1Cc2ccccc2C1=O [Example 66-10] |  | 
7 | 14 nM |  | Cc1c(/N=C2\OCc3ccncc32)cccc1-c1ccc(C(N)=O)c2[nH]c3cc(C(C)(C)OCCO)ccc3c12 [Example 76-49] |  | 
8 | 11 nM | 0.7 nM | Cc1c(-c2ccc(C(N)=O)c3[nH]c4cc(C(O)CO)ccc4c23)cccc1-n1cnc2ccc(F)cc2c1=O (centres unmarked) [Example 70-13] |  | 
9 | 260 nM |  | Cc1ccc2c(c1)CN(c1cccc(-c3ccc(C(N)=O)c4[nH]c5cc(N6CCCC6=O)ccc5c34)c1C)C2=O [Example 66-5] |  | 
10 | 16 nM |  | Cc1cn2ccn(-c3cccc(-c4ccc(C(N)=O)c5[nH]c6cc(NC(C)C)ccc6c45)c3C)c(=O)c2n1 [Example 80-2] |  | 
11 | 48 nM | 2.4 nM | Cc1c(-c2ccc(C(N)=O)c3[nH]c4cc(C(C)(C)O)ccc4c23)cccc1N1Cc2ccc(F)cc2C1=O [Example 76-15] | 29% | 56%
12 | 14 nM | 0.9 nM | Cc1c(-c2ccc(C(N)=O)c3[nH]c4cc(C(O)CO)ccc4c23)cccc1-n1cnc2ccc(Cl)cc2c1=O (centres unmarked) [Example 70-14] |  | 
13 | 17 nM | 1.4 nM | Cc1c(-c2ccc(C(N)=O)c3[nH]c4cc(C(C)(C)O)ccc4c23)cccc1-n1cnc2c(F)cccc2c1=O [Example 76-51] |  | 
14 | 16 nM | 1.1 nM | COC(CO)c1ccc2c(c1)[nH]c1c(C(N)=O)ccc(-c3cccc(N4Cc5ccc(C)cc5C4=O)c3C)c12 (racemic) [Example 75-3] |  | 
15 | 23 nM | 1.4 nM | CC(=O)NCc1ccc2c(c1)[nH]c1c(C(N)=O)ccc(-c3cccc(-n4cnc5ccc(F)cc5c4=O)c3C)c12 [Example 38-3, 7-(acetamidomethyl)-4-(3-(6-fluoro-4-oxoquinazolin-3(4H)-yl)-2-methylphenyl)-9H-carbazole-1-carboxamide] |  | 
16 | 260 nM |  | Cc1c(-c2ccc(C(N)=O)c3[nH]c4cc(N5CCNC5=O)ccc4c23)cccc1N1Cc2cc(F)ccc2C1=O [Example 66-14] |  | 
17 | 270 nM |  | Cc1ccc2c(c1)CN(c1cncc(-c3ccc(C(N)=O)c4[nH]c5cc(N6CCOC6=O)ccc5c34)c1C)C2=O [Example 66-40] |  | 
18 | 260 nM |  | Cc1ccc2ncn(-c3cccc(-c4ccc(C(N)=O)c5[nH]c6c(c45)CCC(C(C)(C)O)C6)c3C)c(=O)c2c1 (centres unmarked) [Example 76-43] |  | 
19 | 260 nM |  | Cc1c(-c2ccc(C(N)=O)c3[nH]c4cc(NC(=O)C5CC5)ccc4c23)cccc1N1Cc2ccccc2C1=O [Example 66-39] |  | 
20 | 17 nM | 1.9 nM | COC1=CC(=O)N(c2cccc(-c3ccc(C(N)=O)c4[nH]c5cc(C(C)(C)O)ccc5c34)c2C)C1 [Example 82-1, 7-(2-hydroxypropan-2-yl)-4-(3-(4-methoxy-2-oxo-2,5-dihydro-1H-pyrrol-1-yl)-2-methylphenyl)-9H-carbazole-1-carboxamide] |  | 
21 | 15 nM |  | Cc1c(Nc2ncnc3c(F)cccc23)cccc1-c1ccc(C(N)=O)c2[nH]c3cc(C(C)(C)O)ccc3c12 [Example 81-1, 4-(3-(8-fluoroquinazolin-4-ylamino)-2-methylphenyl)-7-(2-hydroxypropan-2-yl)-9H-carbazole-1-carboxamide] |  | 
22 | 5400 nM |  | Cc1ccc(NC(=O)Nc2cccc(-c3ccc(C(N)=O)c4[nH]c5cc(C(=O)N6CCN(C)CC6)ccc5c34)c2C)cc1C [Example 8-1, 4-(3-(3-(3,4-dimethylphenyl)ureido)-2-methylphenyl)-7-(4-methylpiperazine-1-carbonyl)-9H-carbazole-1-carboxamide] |  | 
23 |  | 17 nM | Cc1c(NC(=O)CC(C)C)cccc1-c1ccc(C(N)=O)c2[nH]c3cc(C(=O)N4CCN(C)CC4)ccc3c12 [Example 5-62, 4-(2-methyl-3-(3-methylbutanamido)phenyl)-7-(4-methylpiperazine-1-carbonyl)-9H-carbazole-1-carboxamide (prepared as the TFA salt)] |  | 
24 | 280 nM |  | Cc1c(Nc2ncnc3cc(Cl)ccc23)cccc1-c1ccc(C(N)=O)c2[nH]c3cc(C(=O)N4CCN(C)CC4)ccc3c12 [Example 11-6, 4-(3-(7-chloroquinazolin-4-ylamino)-2-methylphenyl)-7-(4-methylpiperazine-1-carbonyl)-9H-carbazole-1-carboxamide] |  | 
25 |  | 16 nM | CN1CCN(C(=O)c2ccc3c(c2)[nH]c2c(C(N)=O)ccc(-c4ccccc4)c23)CC1 [Example 3-45] |  | 
